Reference: paper PMC11002876, “KcsA-Kv1.x chimeras with complete ligand-binding sites provide improved predictivity for screening selective Kv1.x blockers” (The Journal of Biological Chemistry, 2024)
Where a SMILES comes first, the peptide text is derived from it.

These molecules were tested against T1, KcsA-Kv1.1 T+F chimera (Streptomyces lividans, UniProt P0A334, R52A/G53E/A54E/P55A/G56E/A57S/Q58H/L59F/I60S/T61S/Y62I/R64D/L81M) (assay: Phage ELISA-binding assay, KcsA-Kv1.1 T+F). Settings: toxin displayed on M13 phage; Fig. 8D.
T1 sequence (P0A334 1-160 R52A/G53E/A54E/P55A/G56E/A57S/Q58H/L59F/I60S/T61S/Y62I/R64D/L81M): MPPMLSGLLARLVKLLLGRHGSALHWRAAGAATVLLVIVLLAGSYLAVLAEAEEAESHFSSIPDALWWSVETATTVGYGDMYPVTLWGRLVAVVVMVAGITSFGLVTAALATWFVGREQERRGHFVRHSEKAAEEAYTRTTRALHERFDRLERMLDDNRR
Design: species or system human Kv1.1 turret and filter in Streptomyces lividans KcsA
Method: Phage display test solutions were prepared according to routine phage display protocols ([62]). Phosphorylated and annealed oligonucleotides encoding the peptide construct were ligated into linearized pAS62 phagemid vector (https://patents.google.com/patent/WO2022144560A1/en) at a vector/insert ratio of 1:3. The final phagemid construct harbored a signal sequence followed by the peptide of interest, a linker sequence ([…]), and the C-terminal part of the P3 coat protein (amino acids: 216-424 of NP_510891.1). Chemically competent XL1-Blue E. coli cells (2022249, Agilent) were transformed with the ligation product and then streaked onto ampicillin (100 μg/ml) containing LB/Amp plates and incubated for 16 h at 37 °C. A few clones were sequenced, and a single colony with confirmed target sequence was inoculated into 3 ml 2 YT medium supplemented with 100 μg/ml ampicillin and incubated at 37 °C until the culture reached midlog phase. The culture was infected with M13KO7 helper phage (N0315S, New England Biolabs) (phage/cell ratio 10:1) and was incubated for 30 min at 37 °C. The 3 ml culture was transferred into 200 ml 2YT medium, supplemented with 100 μg/ml ampicillin and 25 μg/ml kanamycin, and incubated overnight at 37 °C. The overnight cell culture (200 ml) was pelleted by centrifugation at 8000g for 10 min in 400 ml centrifuge tubes at 4 °C. […] The particle concentrations of phage solutions were determined using a NanoDrop One C (Thermo Fisher Scientific) spectrophotometer. The phage particle concentration was assessed according to the formula: (A268–A320) × 5 × 10^12 particles/ml ([62]). […]
Phage stock solutions were diluted to working concentration with phage resuspension buffer supplemented with 2 mM DDM. […] Following blocking, the wells were washed 4× with washing buffer (300 μl TBS-Tween, 0.1% v/v) using a Wellwash Versa microplate washer (Thermo Fisher Scientific); then 50 μl phage solution (in TBS-BSA-Tween, 0.1% v/v, 2 mM DDM) at determined phage concentration was added to the wells and incubated for 1 h at room temperature on a horizontal shaker. […]

Compound	phage binding to KcsA-Kv1.1 T+F, in words
CC[C@H](C)[C@H](NC(=O)[C@H](CCC(=O)O)NC(=O)[C@@H](NC(=O)CN)C(C)C)C(=O)N[C@@H](CC(N)=O)C(=O)N[C@H](C(=O)N[C@@H](CCCCN)C(=O)N[C@H]1CSSC[C@@H]2NC(=O)[C@H](CCCCN)NC(=O)CNC(=O)[C@H](Cc3ccccc3)NC(=O)[C@H](CCCNC(=N)N)NC(=O)[C@H](CCSC)NC(=O)CNC(=O)[C@H](C)NC(=O)[C@H](CC(=O)O)NC(=O)[C@H](CCCCN)NC(=O)[C@@H]3CSSC[C@@H](C(=O)N[C@H](C(=O)N4CCC[C@H]4C(=O)N[C@@H](CCCCN)C(=O)O)[C@@H](C)O)NC(=O)[C@H](Cc4c[nH]cn4)NC(=O)[C@H](CSSC[C@H](NC(=O)[C@H](CCC(N)=O)NC(=O)[C@@H]4CCCN4C(=O)[C@H](CO)NC(=O)CNC(=O)[C@H](CO)NC1=O)C(=O)N[C@@H](CC(C)C)C(=O)N[C@@H](CCCCN)C(=O)N1CCC[C@H]1C(=O)N3)NC(=O)[C@H](CCCCN)NC(=O)[C@H](CCCNC(=N)N)NC(=O)[C@H](CC(N)=O)NC(=O)[C@H](CCSC)NC2=O)C(C)C [KTX1, Kaliotoxin-1]	ShK > KTX1
CC[C@H](C)[C@@H]1NC(=O)[C@@H]2CSSC[C@H](NC(=O)[C@H](CO)NC(=O)[C@@H](N)C(C)C)C(=O)N[C@@H]([C@@H](C)O)C(=O)NCC(=O)N[C@@H](CO)C(=O)N[C@@H](CCCCN)C(=O)N[C@@H](CC(=O)O)C(=O)N[C@@H](CSSC[C@@H](C(=O)N[C@@H](CCCCN)C(=O)N[C@H]3CSSC[C@@H](C(N)=O)NC(=O)CNC(=O)[C@H](Cc4ccc(O)cc4)NC3=O)NC(=O)[C@H](CO)NC(=O)[C@H](CCCCN)NC(=O)[C@H](CC(N)=O)NC1=O)C(=O)N[C@@H](Cc1ccc(O)cc1)C(=O)N[C@@H](C)C(=O)N1CCC[C@H]1C(=O)N[C@H]1CSSC[C@H](NC(=O)CNC(=O)[C@H]([C@@H](C)O)NC(=O)[C@H](CCC(N)=O)NC(=O)[C@H](CCCCN)NC(=O)[C@H](CCCNC(=N)N)NC1=O)C(=O)N1CCC[C@H]1C(=O)N[C@@H](CC(N)=O)C(=O)N[C@@H](C)C(=O)N[C@@H](CCCCN)C(=O)N2 [MTX, Maurotoxin] (HELM PEPTIDE1{V.S.C.T.G.S.K.D.C.Y.A.P.C.R.K.Q.T.G.C.P.N.A.K.C.I.N.K.S.C.K.C.Y.G.C.[am]}$PEPTIDE1,PEPTIDE1,3:R3-24:R3|PEPTIDE1,PEPTIDE1,9:R3-29:R3|PEPTIDE1,PEPTIDE1,13:R3-19:R3|PEPTIDE1,PEPTIDE1,31:R3-34:R3$$$V2.0; N-terminus and C-terminus assumed)	negligible binding
CC[C@H](C)[C@@H]1NC(=O)[C@@H](NC(=O)[C@H](CO)NC(=O)[C@@H](N)CCCNC(=N)N)CSSC[C@@H](C(=O)O)NC(=O)[C@H]([C@@H](C)O)NC(=O)CNC(=O)[C@@H]2CSSC[C@@H]3NC(=O)[C@H](CCC(N)=O)NC(=O)[C@H](Cc4ccccc4)NC(=O)[C@H](C)NC(=O)[C@H]([C@@H](C)O)NC(=O)[C@H](CSSC[C@H](NC(=O)[C@H](Cc4ccccc4)NC(=O)[C@H](CO)NC(=O)[C@H](CC(C)C)NC(=O)[C@H](CCCNC(=N)N)NC(=O)[C@H](Cc4ccc(O)cc4)NC(=O)[C@H](CCCCN)NC(=O)[C@H](CCSC)NC(=O)[C@H](CO)NC(=O)[C@H](Cc4c[nH]cn4)NC(=O)[C@H](CCCCN)NC3=O)C(=O)N[C@@H](CCCNC(=N)N)C(=O)N[C@@H](CCCCN)C(=O)N[C@@H]([C@@H](C)O)C(=O)N2)NC(=O)[C@H](CCCNC(=N)N)NC(=O)[C@H](CO)NC(=O)[C@H](CCCCN)NC(=O)[C@@H]2CCCN2C(=O)[C@H]([C@@H](C)CC)NC(=O)[C@H]([C@@H](C)O)NC(=O)[C@H](CC(=O)O)NC1=O [ShK, Stichodactyla toxin]	ShK > KTX1
